This note sets out measurements from US20040087561A1, “Treatment of sexual dysfunction” (priority 2000, published 2004).

The structures appear in SMILES notation.

The target in one assay is T1, human GRP receptor (BB2) (Homo sapiens, UniProt P30550).
T1 construct: expressed in transfected cells; host or cells: CHO-K1
Description: BB2 binding assay ([125I][Tyr4]bombesin, CHO-K1 cell membranes). On the procedure:
(§1) In the following experiments, measurement of BB1 and BB2 binding was as follows. CHO-K1 cells stably expressing cloned human NMB (for (BB1 assay) and GRP receptors (for BB2 assay) were routinely grown in Ham's F12 culture medium supplemented with 10% foetal calf serum and 2 mM glutamine. For binding experiments, cells were harvested by trypsinization, and stored frozen at −70° C. in Ham's F12 culture medium containing 5% DMSO until required. On the day of use, cells were thawed rapidly, diluted with an excess of culture medium, and centrifuged for 5 minutes at 2000 g. Cells were resuspended in 50 mM Tris-HCl assay buffer (pH 7.4 at 21° C., containing 0.02% BSA, 40 μg/mL bacitracin, 2 μg/mL chymostatin, 4 μg/mL leupeptin, and 2 μM phosphoramidon), counted, and polytronned (setting 5, 10 sec) before centrifuging for 10 minutes at 28,000 g. The final pellet was resuspended in assay buffer to a final cell concentration of 1.5×10^5/mL. For binding assays, 200 μL aliquots of membranes were incubated with [^125I][Tyr^4]bombesin (<0.1 nM) in the presence and absence of test compounds (final assay volume 250 μL) for 60 minutes and 90 minutes for NMB and GRP receptors, respectively. Nonspecific binding was defined by 1 μM bombesin. Assays were terminated by rapid filtration under vacuum onto Whatman GF/C filters presoaked in 0.2% PEI for >2 hours, and washed 50 mM Tris-HC (pH 6.9 at 21° C.; 6×1 mL). Radioactivity bound was determined using a gamma counter.
(§2) All competition data was analysed using nonlinear regression utilizing iterative curve-plotting procedures in Prism® (GraphPad Software Inc., San Diego, USA). IC50 values were corrected to Ki values using the Cheng-Prusoff equation (Cheng Y., PrusoffW. H., Biochem. Pharmacol. 22: 3099-3108, 1973).

In another assay the target is T2, human NMB receptor (BB1) (Homo sapiens, UniProt P28336).
T2 construct: expressed in transfected cells; host or cells: CHO-K1
T2 sequence (P28336 whole entry): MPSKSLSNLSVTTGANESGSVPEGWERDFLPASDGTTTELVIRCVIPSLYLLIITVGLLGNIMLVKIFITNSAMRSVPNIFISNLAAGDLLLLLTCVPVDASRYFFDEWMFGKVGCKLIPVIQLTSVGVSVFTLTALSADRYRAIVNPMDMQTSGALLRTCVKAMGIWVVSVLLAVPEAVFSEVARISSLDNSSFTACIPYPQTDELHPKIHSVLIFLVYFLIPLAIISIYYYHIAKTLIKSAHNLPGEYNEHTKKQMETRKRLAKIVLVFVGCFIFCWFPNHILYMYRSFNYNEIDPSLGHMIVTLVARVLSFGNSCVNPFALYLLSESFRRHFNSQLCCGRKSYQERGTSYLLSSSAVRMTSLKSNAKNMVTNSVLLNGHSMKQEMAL
Description: BB1 binding assay ([125I][Tyr4]bombesin, CHO-K1 cell membranes). The method, then: as §1, §2

The test system of a further assay is Male New Zealand rabbits. Put plainly: Pelvic nerve-stimulated penile intracavernosal pressure, anaesthetised rabbit model of erection. Conditions: Compound 3 (10 mg/kg sc) concomitant with selective PDE5 inhibitor (1 mg/kg iv), compared with same dose of Compound 3 alone. The format is in vivo. On the procedure:
(§3) Male New Zealand rabbits (˜2.5 kg) were pre-medicated with a combination of Medetomidine (Domitor®) 0.5 ml/kg i.m., and Ketamine (Vetalar®) 0.25 ml/kg i.m. whilst maintaining oxygen intake via a face mask. The rabbits were tracheotomised using a Portex™ uncuffed endotracheal tube 3 ID., connected to ventilator and maintained at a ventilation rate of 30-40 breaths per minute, with an approximate tidal volume of 18-20 ml, and a maximum airway pressure of 10 cm H2O. Anaesthesia was then switched to Isoflurane and ventilation continued with O2 at 2 l/min. The right marginal ear vein was cannulated using a 23G or 24G catheter, and Lactated Ringer solution perfused at 0.5 ml/min. The rabbit was maintained at 3% Isoflurane during invasive surgery, dropping to 2% for maintenance anaesthesia. The left jugular vein was exposed, isolated and then cannulated with a PVC catheter (17G) for the infusion of drugs and compounds.
The left groin area of the rabbit was shaved and a vertical incision was made approximately 5 cm in length along the thigh. […] Systolic and diastolic pressures were measured, and the mean arterial pressure calculated using the formula (diastolic ×2+systolic)[…]. Heart rate was measured via the pulse oxymeter and Po-ne-mah data acquisition software system (Ponemah Physiology Platform, Gould Instrument Systems Inc). […]

A further assay relates to conscious male rat. Description: Penile intracavernosal pressure in the conscious male rat (telemetry). The format is in vivo. On the procedure:
In addition to treating women with FSD, bombesin antagonists will be useful in treating male erectile dysfunction (MED. Both the non-selective BB1/2 antagonists (Compound 1; 10 mg/kg sc) and the selective BB I receptor antagonist (Compound 3; 15 mg/kg sc) is pro-erectile in a conscious rat model of penile erection (FIGS. 24 and 25). Erectile responses were recorded by measuring intracavemosal pressure using surgically implanted telemetric device. The specific details the surgical procedures, data acquisition and analysis can be found in detail in Bernabe 1999.
Compound 1 and compound 3 were dissolved in 50% O-cyclodextrin in saline. They were administered at a dose of 15 mg/kg subcutaneously (sc). […] These increases equate to penile erection. Both Compounds 1 and 3 induced a number of erections in a similar manner to those observed with apomorphine or melanotan-II—both of which are clinically proven agents that are effective in the treatment of MED. Moreover the amplitude of the increases observed were similar to those observed with apomorphine or melanotan-II. The mechanism of action is thought to be similar to the effects on female genital flow ie CNS potentiation of the descending neuronal pathways that control penile erection.

Assay [1] relates to Female New Zealand rabbits. Description: Pelvic nerve-stimulated female genital blood flow, anaesthetised rabbit model of sexual arousal. The format is in vivo. Conditions: 15 mg/kg sc. The method, then: as §3, with “Female” for “Male”, “(2.5” for “(˜2.5”, “im.,” for “i.m.,”, “anaesthesia.” for “anaesthesia. The left jugular vein was exposed, isolated and then cannulated with a PVC catheter (17G) for the infusion of drugs and compounds.”
The left groin area of the rabbit was shaved and a vertical incision was made approximately 5 cm in length along the thigh. […] Systolic and diastolic pressures were measured, and the mean arterial pressure calculated using the formula (diastolic ×2+systolic)÷3. Heart rate was measured via the pulse oxymeter and Po-ne-mah data acquisition software system (Ponemah Physiology Platform, Gould Instrument Systems Inc). […] A frequency response curve was determined at the start of each experiment in order to determine the optimum frequency to use as a sub-maximal response, normally 4 Hz. […]

T1 sequence (P30550 whole entry): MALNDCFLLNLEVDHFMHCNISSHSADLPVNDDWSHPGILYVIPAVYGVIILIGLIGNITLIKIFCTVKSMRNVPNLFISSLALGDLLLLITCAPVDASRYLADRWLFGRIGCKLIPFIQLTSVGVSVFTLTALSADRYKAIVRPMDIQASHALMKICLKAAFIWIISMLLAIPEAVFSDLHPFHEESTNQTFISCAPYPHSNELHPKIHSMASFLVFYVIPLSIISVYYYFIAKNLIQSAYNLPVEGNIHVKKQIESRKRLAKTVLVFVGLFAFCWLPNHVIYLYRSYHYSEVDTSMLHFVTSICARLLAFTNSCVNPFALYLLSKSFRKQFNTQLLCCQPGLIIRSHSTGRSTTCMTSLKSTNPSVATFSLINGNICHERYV

On to `C[C@@](Cc1c[nH]c2ccccc12)(NS(=O)(=O)c1cccc(C(F)(F)F)c1)C(=O)NCC1(c2ccccn2)CCCCC1` [Example 124], for which the IC50 on human GRP receptor (BB2) was determined as 2250 nM; at human NMB receptor (BB1), 440 nM.
For `C[C@@](Cc1c[nH]c2ccccc12)(NC(=O)Nc1ccc([N+](=O)[O-])cc1)C(=O)NCC1(c2ccc(N)cc2)CCCCC1` [Compound 3, (2S)-N-{[1-(4-aminophenyl)cyclohexyl]methyl}-3-(1H-indol-3-yl)-2-methyl-2-{[(4-nitroanilino)carbonyl]amino}propanamide], the “pelvic nerve-stimulated intracavernosal pressure (ICP), combination with PDE5 inhibitor” value in the assay with Male New Zealand rabbits is on record as “marked enhancement”. The “penile erection (erectile response)” value in the assay with conscious male rat (Compound 1 10 mg/kg sc, Compound 3 15 mg/kg sc, conscious rat model) is recorded as “pro-erectile”. In the assay on conscious male rat (one hour after 10 mg/kg sc Compound 1, 45 minutes after 15 mg/kg sc compound 3, conscious rat), the intracavernosal pressure entry is “significant increases in intracavernosal pressure”. Also, in assay [1], the “pelvic-nerve stimulated (PNS) increases in genital (vaginal and clitoral) blood flow” value is “potent enhancer”.
For `C[C@@](Cc1c[nH]c2ccccc12)(NS(=O)(=O)c1cccc([N+](=O)[O-])c1)C(=O)NCC1(c2ccccn2)CCCCC1` [Example 121], the IC50 at human GRP receptor (BB2) came out at 1960 nM; at human NMB receptor (BB1), 208 nM.
With `C[C@@](Cc1c[nH]c2ccccc12)(NS(=O)(=O)c1ccc(F)c(Cl)c1)C(=O)NCC1(c2ccccn2)CCCCC1` [Example 156], the values for the IC50 on human GRP receptor (BB2) and on human NMB receptor (BB1) were 1220 nM and 284 nM, respectively.

Broadly, the IC50 is the midpoint of a concentration-inhibition curve. High values mean weaker potency, low ones greater potency.
